From paper PMC5034864 (Molecular microbiology, 2012)

Key:
Test in all cases: FRET of YPet-PilZ-CyPet fusion protein, titration
Format in all cases: binding
[1] = target: BcsA (STM3619) PilZ domain (Salmonella enterica, UniProt Q93IN2)
PA4324 = PA4324 (Pseudomonas aeruginosa, UniProt Q9HW77)
YcgR (STM1798) = YcgR (STM1798) (Salmonella enterica, UniProt Q8ZP19)
PA3353 = PA3353 (Pseudomonas aeruginosa, UniProt Q9HYP3)

Chain of BcsA (STM3619) PilZ domain (Q93IN2 691-791): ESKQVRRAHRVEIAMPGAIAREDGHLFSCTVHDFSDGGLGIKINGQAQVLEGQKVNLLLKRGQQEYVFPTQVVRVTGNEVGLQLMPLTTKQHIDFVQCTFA
Chain of YcgR (STM1798) (Q8ZP19 whole entry): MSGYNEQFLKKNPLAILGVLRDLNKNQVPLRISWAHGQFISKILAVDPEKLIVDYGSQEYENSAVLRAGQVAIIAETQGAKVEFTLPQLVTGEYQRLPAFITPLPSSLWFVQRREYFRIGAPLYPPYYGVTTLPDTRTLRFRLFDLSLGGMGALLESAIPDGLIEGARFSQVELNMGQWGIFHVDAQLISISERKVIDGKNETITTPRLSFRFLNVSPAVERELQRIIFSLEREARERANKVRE

Structure (SMILES): Nc1nc2c(ncn2[C@@H]2O[C@@H]3CO[P@](=O)(O)O[C@H]4[C@@H](O)[C@H](n5cnc6c(=O)[nH]c(N)nc65)O[C@@H]4CO[P@](=O)(O)O[C@H]3[C@H]2O)c(=O)[nH]1 [c-di-GMP]
- Kd [1]: 8.24 ± 0.238 µM
- Kd (PA4324): 735 ± 474 nM
- Kd (YcgR (STM1798)): 191 ± 18 nM
- Kd (PA3353): 88 ± 17 nM
